Assay results reported in PubChem BioAssay (NCI).
Where “and” joins values, the source holds several entries; their conditions need not be identical. Equal values may be shown once.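 96-well plates; 48 h exposure; 5 concentrations. Endpoints by linear interpolation between flanking doses. Not reached: highest tested concentration assigned. GI50 is the concentration that inhibits growth by half. The concentration for full growth arrest is given as TGI.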

Key:
Experiment in all cases: NCI-60 cell line screen, 48 h
HT29 colon = system: HT29 colon
UACC-257 melanoma = system: UACC-257 melanoma
LOX IMVI melanoma = system: LOX IMVI melanoma
HCC-2998 colon = system: HCC-2998 colon
EKVX NSCLC = system: EKVX NSCLC
HCT-15 colon = system: HCT-15 colon
CAKI-1 renal = system: CAKI-1 renal
TK-10 renal = system: TK-10 renal
SK-MEL-5 melanoma = system: SK-MEL-5 melanoma
UO-31 renal = system: UO-31 renal

SMILES | TGI (HT29 colon) [µM] | TGI (UACC-257 melanoma) [µM] | TGI (LOX IMVI melanoma) [µM] | TGI (HCC-2998 colon) | TGI (EKVX NSCLC) [µM] | TGI (HCT-15 colon) [µM] | TGI (CAKI-1 renal) [µM] | TGI (TK-10 renal) [µM] | TGI (SK-MEL-5 melanoma) [µM] | TGI (UO-31 renal) [µM] | GI50 (UACC-257 melanoma) [µM] | GI50 (HCC-2998 colon) [µM] | GI50 (EKVX NSCLC) [µM] | GI50 (CAKI-1 renal) [µM] | GI50 (TK-10 renal) [µM] | GI50 (LOX IMVI melanoma) [µM] | GI50 (HCT-15 colon) [µM] | GI50 (UO-31 renal) [µM] | GI50 (SK-MEL-5 melanoma) [µM] | GI50 (HT29 colon) [µM]
CCCCCCCCCCCCCCN | > 100 | > 100 | > 100 | > 100 µM | > 100 | > 100 | > 100 | > 100 | > 100 | – | – | – | – | – | – | – | – | – | – | –
COc1ccc(NC(=O)C(=O)Cc2nc3ccc([N+](=O)[O-])cc3[nH]c2=O)c(OC)c1 | > 100 | > 100 | > 100 | > 100 µM | > 100 | > 100 | > 100 | > 100 | > 100 | > 100 | – | – | – | – | – | – | – | – | – | –
CCOC(=O)/C(O)=C/c1cc(OC)cc(=O)o1 | > 100 | > 100 | > 100 | > 100 µM | > 100 | > 100 | > 100 | > 100 | > 100 | > 100 | – | – | – | – | – | – | – | – | – | –
CC1OC(OCC2OC(Oc3c(-c4ccc(O)cc4)oc4cc(O)cc(O)c4c3=O)C(OC3OC(C)C(O)C(O)C3O)C(O)C2O)C(O)C(O)C1O (stereo unspecified) | > 100 | > 100 | > 100 | > 100 µM | > 100 | > 56.8 | > 100 | > 100 | > 100 | > 100 | – | – | – | – | – | – | – | – | – | –
COc1cc(/C=C\c2ccc(C)cc2)cc(OC)c1OC | – | > 76.6 | 38.7 | 0.215 µM and < 0.0303 µM | > 100 | – | > 53.8 | > 100 | – | – | < 0.021 | < 0.0129 | < 0.022 | 0.0235 | 25.7 | – | – | – | – | –
O=[N+]([O-])c1ccc(S(=O)Cc2ccccc2)c([N+](=O)[O-])c1 (stereo unspecified) | – | 3.96 | 2.94 | 30.2 µM | 26.6 | 3.88 | 3.85 | 3.16 | 21.1 | 2.91 | 1.76 | 16.6 | 12.8 | 1.85 | 1.78 | 1.6 | 1.85 | 1.47 | 9.08 | –
CCCNCCCC(NC(C)=O)C(=O)NCc1ccccc1 (stereo unspecified) | > 100 | > 100 | > 100 | > 100 µM | > 100 | > 100 | > 100 | > 100 | > 100 | > 100 | – | – | – | – | – | – | – | – | – | –
COc1cc2c(c(OC)c1OC)-c1ccc(N)c(=O)cc1[C@@H](NC(C)=O)CC2 | 0.0688 | > 100 | > 100 | – | > 100 | > 100 | > 47.2 | > 100 | – | > 100 | > 100 | 0.0279 | 0.0808 | 1.42 | 0.0852 | 0.0256 | 0.358 | 0.705 | – | < 0.0159
CC(=O)NNc1nc(C)c(C(=O)NNC(=O)C(=O)Nc2c(C)cccc2C)s1 | > 100 | > 100 | > 100 | > 100 µM | > 100 | > 100 | > 100 | > 100 | > 100 | > 100 | – | – | – | – | – | – | – | – | – | –
CCn1c(C(=O)N(C2CC2)C2CC2)cc2c3c(ncn3C)c(Nc3cc(C)n(C)n3)nc21 | > 100 | > 100 | > 100 | > 100 µM | > 100 | > 100 | > 100 | > 100 | > 100 | > 100 | > 100 | > 100 | > 100 | 16.8 | > 100 | 59.2 | > 100 | > 38.5 | > 100 | > 100
O=C(Nc1ccc(F)cc1)c1ccc(NC2=C(Cl)C(=O)N(Cc3ccccc3)C2=O)cc1 | > 100 | 56 | 25.2 | > 100 µM | 87 | 49.4 | 3.36 | – | 63.7 | 23.4 | 19.8 | 11 | 27 | 1.78 | – | 11.3 | 13.3 | 10.5 | 18.5 | 13.1
Clc1ccc(Cc2nc3ccccc3s2)c(Cl)c1 | 40.3 | 34.8 | 31.4 | 33.4 µM | 42.1 | 36.5 | 31.2 | 38.4 | 32.6 | 30 | – | – | – | – | – | – | – | – | – | –
C1C[OH+]CC[OH+]CCNCC[OH+]CC[OH+]CCN1.[Cl-].[Pt+4] | > 100 | > 100 | > 100 | > 100 µM | > 100 | – | > 100 | > 100 | > 100 | > 100 | > 100 | > 100 | > 100 | > 100 | > 100 | > 100 | – | > 100 | > 100 | > 100
COC1=CC(=O)C2C(C1=O)[C@@H]1c3ccccc3C[C@H]21 (stereo partly specified) | > 100 | > 100 | > 100 | > 100 µM | > 100 | > 100 | > 100 | > 100 | > 100 | > 100 | – | – | – | – | – | – | – | – | – | –
COc1ccc(-c2oc3c(OC)c(OC)c(OC)c(O)c3c(=O)c2OC)cc1OC | > 78.2 | > 100 | > 76.3 | > 67 µM | > 100 | > 100 | > 100 | > 100 | 41.7 | > 78.7 | – | – | – | – | – | – | – | – | – | –
CC(C)C1(O)C(c2ccccc2)=C(c2ccccc2)C(c2ccccc2)=C1c1ccccc1 | 16 | 26.2 | 20 | 30.4 µM | 47 | 46.8 | > 100 | 56.3 | 22.4 | 23.7 | – | – | – | – | – | – | – | – | – | –
C=CCN(/C=C1/C(=O)O[C@H](COC)[C@@]2(C)C1=C(O)C(=O)C1=C2[C@H](OC(C)=O)C[C@]2(C)C(=O)CC[C@@H]12)CC=C | > 10 | > 9.25 | > 10 | > 7.08 µM | > 10 | > 10 | > 10 | > 7.79 | > 10 | > 10 | 0.72 | 0.385 | 0.828 | 0.357 | 0.193 | 1.65 | 1.19 | 0.148 | 3.16 | 0.422
